Reference: BigSolDB 2.1

O=C(O)CCP(=O)(O)c1ccccc1
Settings	solubility (mole fraction)
in 2-butanone, 293.16 K	0.00061
in 2-butanone, 298.17 K	0.00077
in 2-butanone, 303.18 K	0.00103
in 2-butanone, 308.14 K	0.00127
in 2-butanone, 313.16 K	0.00163
in 2-butanone, 318.17 K	0.00206
in 2-butanone, 323.16 K	0.00253
in 2-butanone, 328.16 K	0.00316
in 2-butanone, 333.15 K	0.00395
in 2-ethoxyethanol, 293.16 K	0.0461
in 2-ethoxyethanol, 298.17 K	0.0512
in 2-ethoxyethanol, 303.18 K	0.0571
in 2-ethoxyethanol, 308.14 K	0.0638
in 2-ethoxyethanol, 313.16 K	0.0709
in 2-ethoxyethanol, 318.17 K	0.0777
in 2-ethoxyethanol, 323.16 K	0.0849
in 2-ethoxyethanol, 328.16 K	0.0937
in 2-ethoxyethanol, 333.15 K	0.102
in acetic acid, 293.16 K	0.0105
in acetic acid, 298.17 K	0.0116
in acetic acid, 303.18 K	0.013
in acetic acid, 308.14 K	0.0147
in acetic acid, 313.16 K	0.0164
in acetic acid, 318.17 K	0.0182
in acetic acid, 323.16 K	0.0205
in acetic acid, 328.16 K	0.0225
in acetic acid, 333.15 K	0.0249
in acetone, 293.16 K	0.00074
in acetone, 298.17 K	0.00093
in acetone, 303.18 K	0.00124
in acetone, 308.14 K	0.00153
in acetone, 313.16 K	0.00197
in acetone, 318.17 K	0.00248
in acetone, 323.16 K	0.00305
in acetonitrile, 293.16 K	6e-05
in acetonitrile, 298.17 K	0.0001
in acetonitrile, 303.18 K	0.00015
in acetonitrile, 308.14 K	0.00023
in acetonitrile, 313.16 K	0.00035
in acetonitrile, 318.17 K	0.00053
in acetonitrile, 323.16 K	0.00078
in acetonitrile, 328.16 K	0.00109
in acetonitrile, 333.15 K	0.00161
in benzene, 293.16 K	0.00081
in benzene, 298.17 K	0.00091
in benzene, 303.18 K	0.00099
in benzene, 308.14 K	0.00107
in benzene, 313.16 K	0.00114
in benzene, 318.17 K	0.00126
in benzene, 323.16 K	0.00134
in benzene, 328.16 K	0.00145
in benzene, 333.15 K	0.00156
in chloroform, 288.15 K	0.00021
in chloroform, 293.16 K	0.00026
in chloroform, 298.17 K	0.00033
in chloroform, 303.18 K	0.00041
in chloroform, 308.14 K	0.00052
in chloroform, 313.16 K	0.00063
in chloroform, 318.17 K	0.00079
in chloroform, 323.16 K	0.00093
in chloroform, 328.16 K	0.00112
in chloroform, 333.15 K	0.00133
in cyclohexane, 293.16 K	0.00088
in cyclohexane, 298.17 K	0.00108
in cyclohexane, 303.18 K	0.00128
in cyclohexane, 308.14 K	0.00157
in cyclohexane, 313.16 K	0.00186
in cyclohexane, 318.17 K	0.00222
in cyclohexane, 323.16 K	0.00263
in cyclohexane, 328.16 K	0.00314
in cyclohexane, 333.15 K	0.00371
in dichloromethane, 288.15 K	0.00029
in dichloromethane, 293.16 K	0.00042
in dichloromethane, 298.17 K	0.00059
in dichloromethane, 303.18 K	0.0008
in dichloromethane, 308.14 K	0.00111
in dichloromethane, 313.16 K	0.00149
in ethyl acetate, 293.16 K	0.00128
in ethyl acetate, 298.17 K	0.00148
in ethyl acetate, 303.18 K	0.00162
in ethyl acetate, 308.14 K	0.00182
in ethyl acetate, 313.16 K	0.00202
in ethyl acetate, 318.17 K	0.00226
in ethyl acetate, 323.16 K	0.00254
in ethyl acetate, 328.16 K	0.00281
in ethyl acetate, 333.15 K	0.00311
in toluene, 293.16 K	0.00051
in toluene, 298.17 K	0.00059
in toluene, 303.18 K	0.00068
in toluene, 308.14 K	0.00079
in toluene, 313.16 K	0.00092
in toluene, 318.17 K	0.00105
in toluene, 323.16 K	0.00119
in toluene, 328.16 K	0.00138
in toluene, 333.15 K	0.00154
in water, 298.25 K	0.00178
in water, 308.66 K	0.00366
in water, 318.07 K	0.00671
in water, 327.17 K	0.0133
in water, 337.55 K	0.0249
in water, 342.75 K	0.0339
in water, 345.06 K	0.0412
in water, 349.47 K	0.0568
